Results published in patent US20230416329A1, “A PEPTIDE WITH DISULFIDE BONDS AND INHIBITORY ACTIVITY AGAINST SERINE PROTEASES, DERIVED HYBRID PEPTIDES THEREOF, AND USES THEREOF” (INSTITUTE OF MATERIA MEDICA , CHINESE ACADEMY OF MEDICAL …, priority 2020, published 2023).
One block for each compound: values may come before it. Bridge positions count the residues as written; N and C are the ends. Square brackets hold non-standard residues; d marks the D form. Peptide text beside a SMILES is read from it. Nle = CCCC[C@H](N)C(=O)O

How the values were obtained:
chymotrypsin = chymotrypsin (Bos taurus, UniProt P00766); assay: in vitro
Description: FIG. 18. […] At different time point, 25 μL aliquots was taken out, and 10% (v/v) TFA was added to terminate the reaction.
Mix by centrifugation at 8000 rpm for 30 seconds.
Arrange a certain volume of 0.05 μg/μL chymotrypsin solution in another sterile EP. Incubate the EP tubes containing peptides and enzymes at 37° C. for 5 min, and add 3 μL of […] solution to each EP tube containing peptides and mix well. Start timing and extract 25 μL of reaction solution at 1.5, 3.0, 4.5, 6.0 and 9.0 min later, respectively. Add 3.75 μL of 10% TFA to terminate the reaction and mix well by centrifugation at 8000 rpm for 30 seconds.
Arrange a certain volume of 0.05 μg/μL chymotrypsin solution in another sterile EP. Incubate the EP tubes containing peptides and enzymes at 37° C. for 5 min, and then add 4.5 μL of chymotrypsin solution to each EP tube containing peptides and mix well. Start timing and extract 25 μL of reaction solution at 1.5, 3.0, 4.5, 6.0, 9.0, 15.0, 30.0, and 60.0 min later, respectively. Add 3.75 μL of 10% TFA to terminate the reaction and mix well by centrifugation at 8000 rpm for 30 seconds.
Referring to the experimental method in Example 5, in vitro stability of salmon Calcitonin analogs with oral administration activity to the enzymatic hydrolysis by trypsin, chymotrypsin and elastase were performed.
Referring to the experimental method in Example 5, in vitro stability of IL-17A inhibitory peptides towards the enzymatic hydrolysis by trypsin, chymotrypsin and elastase were performed.

bovine trypsin = target: T1, bovine trypsin (Bos taurus, UniProt P00760); assay: Trypsin inhibitory activity of peptides (BApNA hydrolysis, OD405; IC50, Ki, residual activity); format: biochemical; conditions: Ki=IC50/(1+S/Km), Km 0.33 mM; read-out: Ki
T1 sequence (P00760 24-246): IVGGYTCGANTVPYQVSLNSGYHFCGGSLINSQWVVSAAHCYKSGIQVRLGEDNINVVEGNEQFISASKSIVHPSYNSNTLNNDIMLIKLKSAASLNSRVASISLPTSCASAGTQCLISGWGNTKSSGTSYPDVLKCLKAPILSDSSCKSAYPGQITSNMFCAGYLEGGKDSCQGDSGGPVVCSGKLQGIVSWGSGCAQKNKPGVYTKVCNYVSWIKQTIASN
Outline: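 Trypsin (50 nM final) preincubated with peptides at 37 °C in 50 mM Tris-HCl pH 7.8, 20 mM CaCl2; BApNA added (1.22 mM final), 260 min at 37 °C, then OD405 read. Residual activity from enzyme-only and substrate-only controls; IC50 fitted and converted to Ki via Ki=IC50/(1+S/Km), Km measured separately for BApNA.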

α-chymotrypsin = α-chymotrypsin (Bos taurus, UniProt P00766); assay: Chymotrypsin inhibitory activity of peptides (AAPFpNA hydrolysis; IC50, Ki, residual activity); format: biochemical; conditions: for Ki: Ki=IC50/(1+S/Km), Km 0.38 mM; for IC50: chymotrypsin 30 nM, AAPFpNA 0.5 mM
Description: The inhibition constants of various synthetic active peptide inhibitors (molecular scaffolds) against seine proteases were measured. The substrates N-succinyl-Ala-Ala-Pro-Phe-p-nitroaniline (AAPFpNA), Nα—Benzoyl-L-arginine-4-nitroaniline hydrochloride (BApNA) and N-succinyl-[…] (AAApNA) are used in competitive binding reaction to determine the inhibitory activities against α-chymotrypsin, bovine trypsin, and porcine pancreatic elastase, respectively. Experiments for α-chymotrypsin and bovine trypsin inhibition were measured in 20 mM CaCl2, 50 mM Tris-HCl buffer (pH 7.8), and that for porcine elastase inhibition was measured in 50 mM Tris-HCl buffer (pH 8.0). The concentration of the peptide was measured using optical density (OD) at 280 nm. The Michaelis constant (Km) of the enzyme hydrolysis substrate is calculated from the initial rate of substrate hydrolysis at 405 nm. The absorbance value of the substrate was measured at 405 nm after complete hydrolysis. All data were processed using nonlinear regression.
• (1) Added a total 190 μL of reaction buffer (20 mM CaCl2, 50 mM Tris-HCl (pH 7.8)) into the 96 well plate, followed by preheating at 37° C. for 15 min. Then added 2 μL of different concentrations of substrates (p-Nitroanilide, pNA, 0.5% in DMSO), and mixed by centrifugation at 500 rpm for 1 min. Finally, the plate was incubated at 37° C. for 20 min, and the absorbance value at 405 nm was measured. In the 200 μL of reaction system, the final concentrations of pNA were 0, 0.025, 0.05, 0.075, 0.1, 0.125, 0.15, 0.25, and 0.3 mM, respectively. Make three repetitions for each concentration and plot the OD405 m value with pNA concentration to obtain the standard curve. • (2) Added a total 190 μL of reaction buffer (20 mM CaCl2, 50 mM Tris-HCl (pH 7.8)) and 8 μL of 0.75 μM chymotrypsin into the 96 well plate, followed by preheating at 37° C. for 5 min. Then added 2 μL of different concentrations of substrates (AAPFpNA, dissolved in DMSO), and mixed by centrifugation at 500 rpm for 1 min. Finally, the plate was incubated at 37° C. for 20 min, and the absorbance value at 405 nm was measured. In the 200 μL of reaction system, the final concentrations of AAPFpNA were 0, 0.125, 0.25, 0.285, 0.33, 0.4, and 0.5 mM, respectively. Make three repetitions for each concentration and plot the OD405 nm value with time to obtain the corresponding curve. Divide the slope of the curve by the slope of the standard curve and the enzyme concentration to obtain the initial velocity V0 (mM/(min*mM protein). Plot the initial velocity V0 with the concentration of substrate AAPFpNA using Prism software, and the Michaelis constant Km value of chymotrypsin hydrolyzing AAPFpNA was obtained.
• (1) Added a total 190 μL of reaction buffer (20 mM CaCl2, 50 mM Tris-HCl (pH 7.8)), different concentrations of anti-chymorypsin peptides (CHs) into the pre-cold 96 well plate, followed by preheating at 37° C. for 5 min and centrifugated at 500 rpm for 1 min and allowed to stand for 4 minutes. Then added 8 μL of 750 nM chymotrypsin and incubated at 37° C. for 10 min, and centrifugated at 500 rpm for 1 min and allowed to stand for 9 minutes. Finally, added 2 μL of 50 mM AAPFpNA, and mixed by centrifugation at 500 rpm for 1 min. The plate was incubated at 37° C. for 90 min, and the absorbance value at 405 nm was measured. Three repetitions were made, and only reaction buffer and substrate were added in the blank control as the minimum absorption value (Min OD405 nm); Only reaction buffer, enzyme and substrate were added in the negative control as the maximum absorption value (Max OD405). • (2) In the 200 μL of reaction system, the final concentrations of chymotrypsin and AAPFpNA were 30 nM and 0.5 mM, respectively. • (3) Data statistics
Residual activity of enzyme (%)=(1−(Max OD405 nm−Sample OD405 nm)/(Max OD405 nm−Min OD405 nm))*100 […]

[1] = isolated enzyme chymotrypsin, pH 7.8, Remaining peak area (%)/chymotrypsin

Remaining peak area (%)/chymotrypsin (chymotrypsin; 0 h): 100.0 ± 0.0%
remaining at 0.025 h, 60 μM (chymotrypsin; [1]): 41.6 ± 3%
remaining at 0.05 h, 60 μM (chymotrypsin; [1]): 41.7 ± 6%
remaining at 0.075 h, 60 μM (chymotrypsin; [1]): 38.8 ± 3.4%
remaining at 0.1 h, 60 μM (chymotrypsin; [1]): 45.1 ± 8.5%
remaining at 0.15 h, 60 μM (chymotrypsin; [1]): 44.3 ± 7.6%
remaining at 0.25 h, 60 μM (chymotrypsin; [1]): 35.2 ± 3.8%
remaining at 0.5 h, 60 μM (chymotrypsin; [1]): 30.5 ± 2.5%
remaining at 1 h, 60 μM (chymotrypsin; [1]): 35.7 ± 3%
Compound: CC[C@H](C)[C@H](N)C(=O)N[C@@H](Cc1c[nH]cn1)C(=O)N[C@H](C(=O)N[C@H](C(=O)N[C@H](C(=O)N1CCC[C@H]1C(=O)N[C@@H](C)C(=O)N[C@@H](CC(=O)O)C(=O)N[C@@H](CC(C)C)C(=O)N[C@@H](Cc1c[nH]c2ccccc12)C(=O)N[C@@H](CC(=O)O)C(=O)N[C@@H](Cc1c[nH]c2ccccc12)C(=O)N[C@H](C(=O)N[C@@H](CC(N)=O)C(=O)NCC(=O)N[C@@H](Cc1ccccc1)C(=O)N[C@H]1CSSC[C@@H](C(=O)N[C@@H](Cc2ccc(O)cc2)C(=O)NCC(=O)O)NC(=O)[C@H](CCC(N)=O)NC(=O)[C@@H]2CCCN2C(=O)[C@@H]2CCCN2C(=O)[C@H]([C@@H](C)CC)NC(=O)[C@H](CO)NC(=O)[C@H](Cc2ccc(O)cc2)NC(=O)[C@H]([C@@H](C)O)NC1=O)[C@@H](C)CC)[C@@H](C)CC)[C@@H](C)O)C(C)C [17A-CH] (H-IHVTIPADLWDWINGFCTYSIPPQCYG-OH; disulfide 17-25)
stability towards chymotrypsin hydrolysis (in words) (chymotrypsin): tolerated to the degradation of corresponding serine proteases

Ki (bovine trypsin): 20 nM
Compound: CCCC[C@@H]1NC(=O)[C@@H](N)CSSC[C@@H](C(=O)N[C@@H](Cc2ccccc2)C(=O)O)NC(=O)[C@H]([C@@H](C)CC)NC(=O)[C@@H]2CCCN2C(=O)[C@@H]2CCCN2C(=O)[C@H]([C@@H](C)CC)NC(=O)[C@H](CO)NC(=O)[C@H](CCCCN)NC(=O)[C@H]([C@@H](C)O)NC(=O)[C@H](C)NC(=O)[C@H](CCCNC(=N)N)NC1=O [BT80] (H-C[Nle]RATKSIPPICF-OH; disulfide 1-12; N-terminus and C-terminus assumed)

Ki (α-chymotrypsin): 460 nM
IC50 (α-chymotrypsin): 1070 nM
Residual activity of chymotrypsin (α-chymotrypsin; peptide 0.001 μM): 103.5 ± 1.6%
Residual activity of chymotrypsin (α-chymotrypsin; peptide 0.01 μM): 104.8 ± 7.2%
Residual activity of chymotrypsin (α-chymotrypsin; peptide 0.1 μM): 93.6 ± 5.5%
Residual activity of chymotrypsin (α-chymotrypsin; peptide 1 μM): 55.0 ± 3.3%
Residual activity of chymotrypsin (α-chymotrypsin; peptide 3 μM): 26.4 ± 1.1%
Residual activity of chymotrypsin (α-chymotrypsin; peptide 10 μM): 10.6 ± 0.2%
Residual activity of chymotrypsin (α-chymotrypsin; peptide 100 μM): 1.2 ± 0.1%
Residual activity of chymotrypsin (α-chymotrypsin; peptide 300 μM): 0.3 ± 0.1%
Residual activity of chymotrypsin (α-chymotrypsin; peptide 1000 μM): 0.5 ± 0.1%
Compound: CC[C@H](C)[C@@H]1NC(=O)[C@H](CO)NC(=O)[C@H](Cc2ccccc2)NC(=O)[C@H]([C@@H](C)O)NC(=O)[C@@H](NC(=O)[C@@H](N)CC(C)C)CSSC[C@@H](C(=O)N[C@@H](Cc2ccc(O)cc2)C(=O)NCC(=O)O)NC(=O)[C@H](CCC(N)=O)NC(=O)[C@@H]2CCCN2C(=O)[C@@H]2CCCN2C1=O [CH1] (H-LCTFSIPPQCYG-OH; disulfide 2-10; N-terminus and C-terminus assumed)

IC50 (α-chymotrypsin): > 50000 nM
Compound: CC[C@H](C)[C@@H]1NC(=O)[C@H](CO)NC(=O)[C@H](Cc2ccccc2)NC(=O)[C@H](C)NC(=O)[C@H](CC(C)C)NC(=O)[C@@H](N)CSSC[C@@H](C(=O)N[C@@H](Cc2ccc(O)cc2)C(=O)NCC(=O)O)NC(=O)[C@H](CCC(N)=O)NC(=O)[C@@H]2CCCN2C(=O)[C@@H]2CCCN2C1=O [CH2] (H-CLAFSIPPQCYG-OH; disulfide 1-10; N-terminus and C-terminus assumed)

IC50 (α-chymotrypsin): > 50000 nM
Compound: CC[C@H](C)[C@@H]1NC(=O)[C@H](CO)NC(=O)[C@H](Cc2ccccc2)NC(=O)[C@H](C)NC(=O)[C@H](CC(C)C)NC(=O)CNC(=O)[C@@H](N)CSSC[C@@H](C(=O)N[C@@H](Cc2ccc(O)cc2)C(=O)NCC(=O)O)NC(=O)[C@H](CCC(N)=O)NC(=O)[C@@H]2CCCN2C(=O)[C@@H]2CCCN2C1=O [CH3] (H-CGLAFSIPPQCYG-OH; disulfide 1-11; N-terminus and C-terminus assumed)

Ki (α-chymotrypsin): 550 nM
IC50 (α-chymotrypsin): 1280 nM
Residual activity of chymotrypsin (α-chymotrypsin; peptide 0.001 μM): 103.2 ± 0.9%
Residual activity of chymotrypsin (α-chymotrypsin; peptide 0.01 μM): 101.8 ± 0.8%
Residual activity of chymotrypsin (α-chymotrypsin; peptide 0.1 μM): 100.7 ± 2.0%
Residual activity of chymotrypsin (α-chymotrypsin; peptide 0.3 μM): 86.7 ± 1.4%
Residual activity of chymotrypsin (α-chymotrypsin; peptide 0.6 μM): 70.4 ± 2.8%
Residual activity of chymotrypsin (α-chymotrypsin; peptide 2.5 μM): 34.6 ± 4.3%
Residual activity of chymotrypsin (α-chymotrypsin; peptide 7.5 μM): 13.8 ± 0.6%
Residual activity of chymotrypsin (α-chymotrypsin; peptide 10 μM): 9.3 ± 1.1%
Residual activity of chymotrypsin (α-chymotrypsin; peptide 100 μM): 0.7 ± 0.1%
Residual activity of chymotrypsin (α-chymotrypsin; peptide 1000 μM): 0.2 ± 0.0%
Compound: CC[C@H](C)[C@@H]1NC(=O)[C@H](CO)NC(=O)[C@H](Cc2ccc(O)cc2)NC(=O)[C@H]([C@@H](C)O)NC(=O)[C@@H](NC(=O)[C@@H](N)CO)CSSC[C@@H](C(=O)N[C@@H](Cc2ccc(O)cc2)C(=O)NCC(=O)O)NC(=O)[C@H](CCC(N)=O)NC(=O)[C@@H]2CCCN2C(=O)[C@@H]2CCCN2C1=O [CH4] (H-SCTYSIPPQCYG-OH; disulfide 2-10; N-terminus and C-terminus assumed)

IC50 (α-chymotrypsin): > 50000 nM
Compound: CC[C@H](C)[C@@H]1NC(=O)[C@H](CO)NC(=O)[C@H](Cc2ccc(O)cc2)NC(=O)[C@H]([C@@H](C)O)NC(=O)CNC(=O)[C@H](CO)NC(=O)CNC(=O)[C@@H](N)CSSC[C@@H](C(=O)N[C@@H](Cc2ccc(O)cc2)C(=O)NCC(=O)O)NC(=O)[C@H](CCC(N)=O)NC(=O)[C@@H]2CCCN2C(=O)[C@@H]2CCCN2C1=O [CH6] (H-CGSGTYSIPPQCYG-OH; disulfide 1-12; N-terminus and C-terminus assumed)
